Data from PubChem BioAssay (NCI).
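Step 1: Grow cells in 96-well plates. Step 2: Expose to compound for 48 hours at 5 concentrations. Step 3: Interpolate endpoints linearly; if unreached, use highest concentration. Here, GI50 denotes the concentration required for 50% inhibition of growth. Definition used: TGI = concentration required for complete inhibition of growth.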

Columns and labels:
Assay in all cases: NCI anticancer screen, dose series, 48 h
DLD-1 colon = test system: DLD-1 colon
MOLT-4 leukemia = test system: MOLT-4 leukemia
HT29 colon = test system: HT29 colon
SNB-78 CNS = test system: SNB-78 CNS
M19-MEL melanoma = test system: M19-MEL melanoma
LOX IMVI melanoma = test system: LOX IMVI melanoma
NCI-H23 lung = test system: NCI-H23 lung
EKVX NSCLC = test system: EKVX NSCLC
U251 CNS = test system: U251 CNS
A498 renal = test system: A498 renal
K-562 leukemia = test system: K-562 leukemia
UACC-257 melanoma = test system: UACC-257 melanoma
MALME-3M melanoma = test system: MALME-3M melanoma
HCT-15 colon = test system: HCT-15 colon
HCT-116 colon = test system: HCT-116 colon
CCRF-CEM leukemia = test system: CCRF-CEM leukemia
OVCAR-4 ovarian = test system: OVCAR-4 ovarian
HOP-62 NSCLC = test system: HOP-62 NSCLC
DMS 114 small cell lung = test system: DMS 114 small cell lung
KM12 colon = test system: KM12 colon
SNB-19 CNS = test system: SNB-19 CNS
OVCAR-3 ovarian = test system: OVCAR-3 ovarian
ACHN renal = test system: ACHN renal
UO-31 renal = test system: UO-31 renal
HCC-2998 colon = test system: HCC-2998 colon
OVCAR-5 ovarian = test system: OVCAR-5 ovarian
SNB-75 CNS = test system: SNB-75 CNS
SF-268 CNS = test system: SF-268 CNS
SK-MEL-2 melanoma = test system: SK-MEL-2 melanoma
NCI-H460 lung = test system: NCI-H460 lung
RXF 393 renal = test system: RXF 393 renal
SK-MEL-28 melanoma = test system: SK-MEL-28 melanoma
HL-60(TB) leukemia = test system: HL-60(TB) leukemia
M14 melanoma = test system: M14 melanoma
TK-10 renal = test system: TK-10 renal
NCI-H522 lung = test system: NCI-H522 lung
SF-539 CNS = test system: SF-539 CNS
SR leukemia = test system: SR leukemia
UACC-62 melanoma = test system: UACC-62 melanoma
LXFL 529 NSCLC = test system: LXFL 529 NSCLC
RPMI-8226 leukemia = test system: RPMI-8226 leukemia
SK-OV-3 ovarian = test system: SK-OV-3 ovarian
SN12C renal = test system: SN12C renal
NCI-H226 lung = test system: NCI-H226 lung
OVCAR-8 ovarian = test system: OVCAR-8 ovarian
COLO 205 colon = test system: COLO 205 colon
CAKI-1 renal = test system: CAKI-1 renal
SF-295 CNS = test system: SF-295 CNS
XF 498 CNS = test system: XF 498 CNS
SW-620 colon = test system: SW-620 colon
SK-MEL-5 melanoma = test system: SK-MEL-5 melanoma
DMS 273 small cell lung = test system: DMS 273 small cell lung
786-0 renal = test system: 786-0 renal
A549 NSCLC = test system: A549 NSCLC
IGROV1 ovarian = test system: IGROV1 ovarian
KM20L2 colon = test system: KM20L2 colon
HOP-18 NSCLC = test system: HOP-18 NSCLC
HOP-92 NSCLC = test system: HOP-92 NSCLC

Nc1n[nH]c(CCCCCCCc2nc(N)n[nH]2)n1
TGI (DLD-1 colon): > 100 µM
TGI (MOLT-4 leukemia): > 100 µM
TGI (HT29 colon): > 100 µM
TGI (SNB-78 CNS): > 100 µM
TGI (M19-MEL melanoma): > 100 µM
TGI (LOX IMVI melanoma): > 100 µM
TGI (NCI-H23 lung): > 100 µM
TGI (EKVX NSCLC): > 100 µM
TGI (U251 CNS): > 100 µM
TGI (A498 renal): > 100 µM
TGI (K-562 leukemia): > 100 µM
TGI (UACC-257 melanoma): > 100 µM
TGI (MALME-3M melanoma): > 100 µM
TGI (HCT-15 colon): > 100 µM
TGI (HCT-116 colon): > 100 µM
TGI (CCRF-CEM leukemia): > 100 µM
TGI (OVCAR-4 ovarian): > 100 µM
TGI (HOP-62 NSCLC): > 100 µM
TGI (DMS 114 small cell lung): > 100 µM
TGI (KM12 colon): > 100 µM
TGI (SNB-19 CNS): > 100 µM
TGI (OVCAR-3 ovarian): > 100 µM
TGI (ACHN renal): > 100 µM
TGI (UO-31 renal): > 100 µM
TGI (HCC-2998 colon): > 100 µM
TGI (OVCAR-5 ovarian): > 100 µM
TGI (SNB-75 CNS): > 100 µM
TGI (SF-268 CNS): > 100 µM
TGI (SK-MEL-2 melanoma): > 100 µM
TGI (NCI-H460 lung): > 100 µM
TGI (RXF 393 renal): > 100 µM
TGI (SK-MEL-28 melanoma): > 100 µM
TGI (HL-60(TB) leukemia): > 100 µM
TGI (M14 melanoma): > 100 µM
TGI (TK-10 renal): > 100 µM
TGI (NCI-H522 lung): > 100 µM
TGI (SF-539 CNS): > 100 µM
TGI (SR leukemia): > 100 µM
TGI (UACC-62 melanoma): > 100 µM
TGI (LXFL 529 NSCLC): > 100 µM
TGI (RPMI-8226 leukemia): > 100 µM
TGI (SK-OV-3 ovarian): > 100 µM
TGI (SN12C renal): > 100 µM

CC(=O)[CH-]C(C)=O.CC(=O)[CH-]C(C)=O.CC(=O)[CH-]C(C)=O.[Ga+3]
GI50 (NCI-H226 lung): > 100 µM
TGI (NCI-H226 lung): > 100 µM
GI50 (DLD-1 colon): > 100 µM
TGI (DLD-1 colon): > 100 µM
GI50 (OVCAR-8 ovarian): > 100 µM
TGI (OVCAR-8 ovarian): > 100 µM
GI50 (COLO 205 colon): > 100 µM
TGI (COLO 205 colon): > 100 µM
GI50 (CAKI-1 renal): > 100 µM
TGI (CAKI-1 renal): > 100 µM
GI50 (SF-295 CNS): > 100 µM
TGI (SF-295 CNS): > 100 µM
GI50 (XF 498 CNS): > 100 µM
TGI (XF 498 CNS): > 100 µM
GI50 (LOX IMVI melanoma): 32.7 µM
TGI (LOX IMVI melanoma): > 100 µM
GI50 (NCI-H23 lung): > 100 µM
TGI (NCI-H23 lung): > 100 µM
GI50 (SW-620 colon): > 100 µM
TGI (SW-620 colon): > 100 µM
GI50 (EKVX NSCLC): > 100 µM
TGI (EKVX NSCLC): > 100 µM
GI50 (U251 CNS): > 100 µM
TGI (U251 CNS): > 100 µM
GI50 (SK-MEL-5 melanoma): > 100 µM
TGI (SK-MEL-5 melanoma): > 100 µM
GI50 (MALME-3M melanoma): > 100 µM
TGI (MALME-3M melanoma): > 100 µM
GI50 (HCT-15 colon): > 100 µM
TGI (HCT-15 colon): > 100 µM
GI50 (HCT-116 colon): > 100 µM
TGI (HCT-116 colon): > 100 µM
GI50 (DMS 273 small cell lung): > 100 µM
TGI (DMS 273 small cell lung): > 100 µM
GI50 (OVCAR-4 ovarian): > 100 µM
TGI (OVCAR-4 ovarian): > 100 µM
GI50 (DMS 114 small cell lung): > 100 µM
TGI (DMS 114 small cell lung): > 100 µM
GI50 (KM12 colon): > 100 µM
TGI (KM12 colon): > 100 µM
GI50 (786-0 renal): > 100 µM
TGI (786-0 renal): > 100 µM
GI50 (A549 NSCLC): > 100 µM
TGI (A549 NSCLC): > 100 µM
GI50 (SNB-19 CNS): > 100 µM
TGI (SNB-19 CNS): > 100 µM
GI50 (IGROV1 ovarian): > 100 µM
TGI (IGROV1 ovarian): > 100 µM
GI50 (OVCAR-3 ovarian): > 100 µM
TGI (OVCAR-3 ovarian): > 100 µM
GI50 (ACHN renal): > 100 µM
TGI (ACHN renal): > 100 µM
GI50 (UO-31 renal): > 100 µM
TGI (UO-31 renal): > 100 µM
GI50 (HCC-2998 colon): > 100 µM
TGI (HCC-2998 colon): > 100 µM
GI50 (OVCAR-5 ovarian): > 100 µM
TGI (OVCAR-5 ovarian): > 100 µM
GI50 (SNB-75 CNS): > 100 µM
TGI (SNB-75 CNS): > 100 µM
GI50 (SF-268 CNS): > 100 µM
TGI (SF-268 CNS): > 100 µM
GI50 (SK-MEL-2 melanoma): > 100 µM
TGI (SK-MEL-2 melanoma): > 100 µM
GI50 (NCI-H460 lung): > 100 µM
TGI (NCI-H460 lung): > 100 µM
GI50 (RXF 393 renal): > 100 µM
TGI (RXF 393 renal): > 100 µM
GI50 (SK-MEL-28 melanoma): > 100 µM
TGI (SK-MEL-28 melanoma): > 100 µM
GI50 (M14 melanoma): > 100 µM
TGI (M14 melanoma): > 100 µM
GI50 (TK-10 renal): > 100 µM
TGI (TK-10 renal): > 100 µM
GI50 (NCI-H522 lung): > 100 µM
TGI (NCI-H522 lung): > 100 µM
GI50 (SF-539 CNS): > 100 µM
TGI (SF-539 CNS): > 100 µM
GI50 (SR leukemia): > 100 µM
TGI (SR leukemia): > 100 µM
GI50 (UACC-62 melanoma): > 100 µM
TGI (UACC-62 melanoma): > 100 µM
GI50 (KM20L2 colon): > 100 µM
TGI (KM20L2 colon): > 100 µM
GI50 (LXFL 529 NSCLC): > 100 µM
TGI (LXFL 529 NSCLC): > 100 µM
GI50 (RPMI-8226 leukemia): > 100 µM
TGI (RPMI-8226 leukemia): > 100 µM
GI50 (SN12C renal): > 100 µM
TGI (SN12C renal): > 100 µM

NC(CCCCNCc1ccccc1O)C(=O)O (stereo not drawn)
TGI (NCI-H226 lung): > 100 µM
TGI (DLD-1 colon): > 100 µM
TGI (MOLT-4 leukemia): > 100 µM
TGI (OVCAR-8 ovarian): > 100 µM
TGI (COLO 205 colon): > 100 µM
TGI (HT29 colon): > 100 µM
TGI (CAKI-1 renal): > 100 µM
TGI (SNB-78 CNS): > 100 µM
TGI (SF-295 CNS): > 100 µM
TGI (M19-MEL melanoma): > 100 µM
TGI (LOX IMVI melanoma): > 100 µM
TGI (NCI-H23 lung): > 100 µM
TGI (SW-620 colon): > 100 µM
TGI (EKVX NSCLC): > 100 µM
TGI (U251 CNS): > 100 µM
TGI (A498 renal): > 100 µM
TGI (SK-MEL-5 melanoma): > 100 µM
TGI (K-562 leukemia): > 100 µM
TGI (UACC-257 melanoma): > 100 µM
TGI (HOP-18 NSCLC): > 100 µM
TGI (MALME-3M melanoma): > 100 µM
TGI (HCT-15 colon): > 100 µM
TGI (HCT-116 colon): > 100 µM
TGI (DMS 273 small cell lung): > 100 µM
TGI (CCRF-CEM leukemia): > 100 µM
TGI (OVCAR-4 ovarian): > 100 µM
TGI (HOP-62 NSCLC): > 100 µM
TGI (DMS 114 small cell lung): > 100 µM
TGI (KM12 colon): > 100 µM
TGI (786-0 renal): > 100 µM
TGI (A549 NSCLC): > 100 µM
TGI (SNB-19 CNS): > 100 µM
TGI (IGROV1 ovarian): > 100 µM
TGI (OVCAR-3 ovarian): > 100 µM
TGI (ACHN renal): > 100 µM
TGI (UO-31 renal): > 100 µM
TGI (HCC-2998 colon): > 100 µM
TGI (OVCAR-5 ovarian): > 100 µM
TGI (SNB-75 CNS): > 100 µM
TGI (SF-268 CNS): > 100 µM
TGI (SK-MEL-2 melanoma): > 100 µM
TGI (NCI-H460 lung): > 100 µM
TGI (SK-MEL-28 melanoma): > 100 µM
TGI (HL-60(TB) leukemia): > 100 µM
TGI (M14 melanoma): > 100 µM
TGI (TK-10 renal): > 100 µM
TGI (NCI-H522 lung): > 100 µM
TGI (SF-539 CNS): > 100 µM
TGI (UACC-62 melanoma): > 100 µM
TGI (KM20L2 colon): > 100 µM
TGI (HOP-92 NSCLC): > 100 µM
TGI (LXFL 529 NSCLC): > 100 µM
TGI (RPMI-8226 leukemia): > 100 µM
TGI (SK-OV-3 ovarian): > 100 µM
TGI (SN12C renal): > 100 µM
